In patent publication EP0415924B1, “REGULATION OF CELL PROLIFERATION AND DIFFERENTIATION USING PEPTIDES” (HOLICK, Michael F, priority 1987, dated 1996):

How the values were obtained:
[1] = test system: cultured human keratinocytes; experiment: Keratinocyte culture: counts of total cells and basal cells after one week of dosing; type: cell-based; details: seven days, dose-dependent, Figures 2-5
Experimental: Keratinocytes were grown in culture as follows. NIH 3T3 cells were plated at 0.5 x 10⁵ cells per 35-mm tissue-culture dish, and two days later were lethally irradiated with a cobalt-60 source (5000 rads). Keratinocytes were obtained from neonatal foreskin after overnight trypsinization at 4°C and treatment with 0.02% EDTA. Keratinocytes were plated in 2 ml of serum-free medium per dish on the lethally irradiated 3T3 cells. Each experiment was performed on primary or secondary keratinocyte cultures obtained from different skin samples. The serum-free medium consisted of Dulbecco's Modified Eagle's Medium (DMEM) with high (1.8 mM) concentration of calcium (M.A. Bioproducts, Walkersville, MD) containing 7 growth factors: epidermal growth factor (25 ng/ml); hydrocortisone (203 ng/ml); insulin (5 µg/ml); prostaglandin E₁ (50 ng/ml); transferrin (5 µg/ml; prostaglandin E₁ (50 ng/ml); cholera toxin (0.1 µg/ml); (Sigma Chemical Co., St. Louis, MO); and selenous acid (2 ng/ml) (Collaborative Research, Lexington, MA). At one week in culture, hydrocortisone and cholera toxin were removed from the medium, and the dishes were washed with 0.02% EDTA to remove any remaining 3T3 cells. […]
After seven days the cultures were evaluated for their total cell content, number of basal cells, and cornified envelopes as described above. […]

[2] = test system: cultured human keratinocytes; experiment: Keratinocyte differentiation: count of cornified envelopes after one week of dosing; type: cell-based; details: dose-dependent, relative to control cultures, Figures 6 and 7
Experimental: Keratinocytes were grown in culture as follows. NIH 3T3 cells were plated at 0.5 x 10⁵ cells per 35-mm tissue-culture dish, and two days later were lethally irradiated with a cobalt-60 source (5000 rads). Keratinocytes were obtained from neonatal foreskin after overnight trypsinization at 4°C and treatment with 0.02% EDTA. Keratinocytes were plated in 2 ml of serum-free medium per dish on the lethally irradiated 3T3 cells. Each experiment was performed on primary or secondary keratinocyte cultures obtained from different skin samples. The serum-free medium consisted of Dulbecco's Modified Eagle's Medium (DMEM) with high (1.8 mM) concentration of calcium (M.A. Bioproducts, Walkersville, MD) containing 7 growth factors: epidermal growth factor (25 ng/ml); hydrocortisone (203 ng/ml); insulin (5 µg/ml); prostaglandin E₁ (50 ng/ml); transferrin (5 µg/ml; prostaglandin E₁ (50 ng/ml); cholera toxin (0.1 µg/ml); (Sigma Chemical Co., St. Louis, MO); and selenous acid (2 ng/ml) (Collaborative Research, Lexington, MA). At one week in culture, hydrocortisone and cholera toxin were removed from the medium, and the dishes were washed with 0.02% EDTA to remove any remaining 3T3 cells.
In addition, 1,25-(OH)₂D₃ was tested, alone and in combination with PTH (7-34), and PTH (1-34) and PTH (7-34) were tested together. […]

[3] = test system: canine adenylate cyclase system; details: cited from earlier work

Compound: C=C1/C(=C\C=C2/CCC[C@]3(C)[C@@H]([C@H](C)CCCC(C)(C)O)CC[C@@H]23)C[C@@H](O)C[C@@H]1O [1,25(OH)₂D₃, 1,25-dihydroxyvitamin D₃]
- total number of cells and the number of basal cells in the cultures [1]: in a dose-dependent manner decreased
- total number of cornified envelopes (percent of control) [2]: increased, in a dose-dependent manner

Compound: Rat PTH (1-34): rat PTH 1-34 fragment, 5 amino acid sequence difference from the 1-34 region of human and bovine PTH
- activity relative to bovine PTH (1-34) ([3]; more active than bovine PTH (1-34)): 2-4 fold
- activity relative to human PTH (1-34) ([3]; more active than human PTH (1-34)): 8-10 fold
